# Target: T1, HDM2 (Homo sapiens, UniProt Q00987)
# T1 construct: Thioredoxin (N); made in house; host or cells: E. coli strain BL21(DE3)Rosetta
# Assay: HDM2 FRET assay (inhibition of binding of FITC labeled p53-pocket peptide to HDM2)
# Details: 0.5 nM HDM2 (residues 17 to 125), 3nM peptide, two hour incubation at room temperature; read-out: FRET IC50
# Description: Methods: An HDM2 FRET assay was developed to assess the compounds' inhibitory activity towards binding of p53 protein. […] Protein was purified using Ni-affinity chromatography, followed by size exclusion chromatography using Superdex 75 26/60 column. […] The HDM2 assay buffer contained 1x Phosphate Buffered Saline (Invitrogen, Cat#14190), 0.01% BSA (Jackson ImmunoResearch, Cat# 001-000-162), 0.01% Tween-20. In the 1X assay buffer recombinant HDM2 protein, peptide and Lumi4-Tb Cryptate-conjugate mouse anti-6xHis antibody (cisbio, Cat#Tb61HISTLB) were added and transferred to ProxiPlate PLUS (PerkinElmer, Cat#6008269), containing compounds so that final DMSO concentration is 0.1% . Final concentrations of reagents in the assay wells are 0.5 nM HDM2, 0.25nM anti HIS (Tb label) antibody and 3nM peptide. […] Ratio of em520/em495 was used to calculate %inhibition and to obtain IC50 with 4-parameter logistic equation.
# IC50 DETERMINATIONS: Dose-response curves were plotted from the inhibition data, from 10 point serial dilutions of inhibitory compounds. Concentration of compound was plotted against em520/Cem495 ratio signal. To generate IC50 values, the dose-response curves were fitted to a standard sigmoidal curve and IC50 values were derived by nonlinear regression analysis.
# T1 sequence (Q00987 17-125): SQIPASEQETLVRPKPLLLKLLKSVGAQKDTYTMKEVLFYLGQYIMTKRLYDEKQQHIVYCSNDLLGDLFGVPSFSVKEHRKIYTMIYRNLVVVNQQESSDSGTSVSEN
row,SMILES,IC50 [nM]
1,"C[C@@H](Nc1nc([S+](C)[O-])nc2nc(N3CCOC[C@H]3c3ccccc3)n(C[C@H]3CC[C@H](C)CC3)c12)C1CCC1 (single isomer, unassigned) [Example 14.2]",10.5
2,"C[C@@H](Nc1nc([S+](C)[O-])nc2nc(N3CCOC[C@H]3c3ccccc3)n(C[C@H]3CC[C@H](C)CC3)c12)C1CCC1 (single isomer, unassigned) [Example 14.3]",57.4
3,"C[C@@H](Nc1nc(S(C)(=O)=O)nc2nc(N3CCCCC3c3ccccc3)n(C[C@H]3CC[C@H](C)CC3)c12)C1CCC1 (single isomer, unassigned) [Example 14.10]",109
4,"C[C@H]1CC[C@H](Cn2c(N3CCCC4COCCC43)nc3nc(-c4noc(=O)[nH]4)nc(-c4cccc(Cl)c4)c32)CC1 (single isomer, unassigned) [Example 16.118, 3-{6-(3-chlorophenyl)-8-(hexahydro-2H-pyrano[4,3-b]pyridin-1(5H)-yl)-7-[(trans-4-methylcyclohexyl)methyl]-7H-purin-2-yl}-1,2,4-oxadiazol-5(4H)-one]",22.2

# Same assay, conditions: Table 11; read-out: FRET IC50
row,SMILES,IC50 [nM]
1,"C[C@@H](Nc1nc(-c2noc(=O)[nH]2)nc2nc(N3CCCC3C[S+](C)[O-])n(C[C@H]3CC[C@H](C)CC3)c12)C1CCC1 (single isomer, unassigned) [Example 11.154]",70.7
2,"C[C@@H](Nc1nc(-c2noc(=O)[nH]2)nc2nc(N3CCCC3C[S+](C)[O-])n(C[C@H]3CC[C@H](C)CC3)c12)C1CCC1 (single isomer, unassigned) [Example 11.155]",165
3,"C[C@@H](Nc1nc(-c2n[nH]c(=O)o2)nc2nc(N3CCO[C@H](C)[C@@H]3C)n(C[C@H]3CC[C@H](C)CC3)c12)C1CCC1 (single isomer, unassigned) [Example 11.157]",47
4,"C[C@@H](Nc1nc(-c2n[nH]c(=O)o2)nc2nc(N3CCO[C@H](C)[C@@H]3C)n(C[C@H]3CC[C@H](C)CC3)c12)C1CCC1 (single isomer, unassigned) [Example 11.158]",12.9
5,"C[C@@H](Nc1nc(-c2n[nH]c(=O)o2)nc2nc(N3CCO[C@H]4CCCC[C@H]43)n(C[C@H]3CC[C@H](C)CC3)c12)C1CCC1 (single isomer, unassigned) [Example 11.161]",29.5
6,"C[C@@H](Nc1nc(-c2n[nH]c(=O)o2)nc2nc(N3CCO[C@H]4CCCC[C@H]43)n(C[C@H]3CC[C@H](C)CC3)c12)C1CCC1 (single isomer, unassigned) [Example 11.162]",7.4

# Same assay, conditions: Table 18; read-out: FRET IC50
row,SMILES,IC50 [nM]
1,"CC([C@H]1CC[C@H](C)CC1)n1c(N2CCOC[C@H]2C)nc2nc(-c3noc(=O)[nH]3)nc(N[C@H](C)C3CCC3)c21 (single isomer, unassigned) [Example 18.12]",2.82
2,"CC([C@H]1CC[C@H](C)CC1)n1c(N2CCOC[C@H]2C)nc2nc(-c3noc(=O)[nH]3)nc(N[C@H](C)C3CCC3)c21 (single isomer, unassigned) [Example 18.13]",2.27
3,"CC([C@H]1CC[C@H](C)CC1)n1c(N2CCOC[C@H]2c2ccccc2)nc2nc(-c3n[nH]c(=O)o3)nc(-c3cncc(Cl)c3)c21 (single isomer, unassigned) [Example 18.14]",0.62
4,"CC([C@H]1CC[C@H](C)CC1)n1c(N2CCOC[C@H]2C)nc2nc(-c3n[nH]c(=O)o3)nc(-c3cccc(Cl)c3)c21 (single isomer, unassigned) [Example 18.35]",5.04
5,"CC([C@H]1CC[C@H](C)CC1)n1c(N2CCOC[C@H]2C)nc2nc(-c3n[nH]c(=O)o3)nc(-c3cccc(Cl)c3)c21 (single isomer, unassigned) [Example 18.36]",8.87
6,"CC([C@H]1CC[C@H](C)CC1)n1c(N2CCC[C@H]2CF)nc2nc(-c3noc(=O)[nH]3)nc(-c3cncc(Cl)c3)c21 (single isomer, unassigned) [Example 18.45]",2.42
7,"CC([C@H]1CC[C@H](C)CC1)n1c(N2CCC[C@H]2CF)nc2nc(-c3noc(=O)[nH]3)nc(-c3cncc(Cl)c3)c21 (single isomer, unassigned) [Example 18.46]",5.49
8,"CC([C@H]1CC[C@H](C)CC1)n1c(N2CCC[C@H]2CF)nc2nc(-c3n[nH]c(=O)o3)nc(-c3cncc(Cl)c3)c21 (single isomer, unassigned) [Example 18.47]",5.14
9,"CC([C@H]1CC[C@H](C)CC1)n1c(N2CCC[C@H]2CF)nc2nc(-c3n[nH]c(=O)o3)nc(-c3cncc(Cl)c3)c21 (single isomer, unassigned) [Example 18.48]",8.12
10,"CC[C@@H]1COCCN1c1nc2nc(-c3noc(=O)[nH]3)nc(-c3cccc(Cl)c3)c2n1C(C)[C@H]1CC[C@H](C)CC1 (single isomer, unassigned) [Example 18.50]",7.04
11,"CC[C@@H]1COCCN1c1nc2nc(-c3noc(=O)[nH]3)nc(-c3cccc(Cl)c3)c2n1C(C)[C@H]1CC[C@H](C)CC1 (single isomer, unassigned) [Example 18.51]",10.5

# Same assay, conditions: Table 21; read-out: FRET IC50
row,SMILES,IC50 [nM]
1,"C[C@@H](Nc1nc(C(=O)O)nc2nc(C3CCCCC3c3ccccc3)n(Cc3ccc(C(F)(F)F)cc3)c12)C1CCC1 (single isomer, unassigned) [Example 21.1]",10.2
2,"C[C@@H](Nc1nc(C(=O)O)nc2nc(C3CCCCC3c3ccccc3)n(Cc3ccc(C(F)(F)F)cc3)c12)C1CCC1 (single isomer, unassigned) [Example 21.2]",2.36
3,"C[C@@H](Nc1nc(C(=O)O)nc2nc(C3CCCC3c3ccccc3)n(Cc3ccc(C(F)(F)F)cc3)c12)C1CCC1 (single isomer, unassigned) [Example 21.5]",26.5
4,"C[C@@H](Nc1nc(C(=O)O)nc2nc(C3CCCC3c3ccccc3)n(Cc3ccc(C(F)(F)F)cc3)c12)C1CCC1 (single isomer, unassigned) [Example 21.6]",1.36
5,"C[C@@H](Nc1nc(C(=O)O)nc2nc(C3COCC3c3ccccc3)n(Cc3ccc(C(F)(F)F)cc3)c12)C1CCC1 (single isomer, unassigned) [Example 21.7]",28.7
6,"C[C@@H](Nc1nc(C(=O)O)nc2nc(C3COCC3c3ccccc3)n(Cc3ccc(C(F)(F)F)cc3)c12)C1CCC1 (single isomer, unassigned) [Example 21.8]",3.8
7,"CC(c1ccccc1)c1nc2nc(-c3noc(=O)[nH]3)nc(N[C@H](C)C3CCC3)c2n1C[C@H]1CC[C@H](C)CC1 (single isomer, unassigned) [Example 21.14]",19.8
8,"CC(c1ccccc1)c1nc2nc(-c3noc(=O)[nH]3)nc(N[C@H](C)C3CCC3)c2n1C[C@H]1CC[C@H](C)CC1 (single isomer, unassigned) [Example 21.15]",2.04
9,"C[C@@H](Nc1nc(-c2noc(=O)[nH]2)nc2nc(C3CCCCC3c3ccccc3)n(C[C@H]3CC[C@H](C)CC3)c12)C1CCC1 (single isomer, unassigned) [Example 21.25]",28.9
10,"C[C@@H](Nc1nc(-c2noc(=O)[nH]2)nc2nc(C3CCCCC3c3ccccc3)n(C[C@H]3CC[C@H](C)CC3)c12)C1CCC1 (single isomer, unassigned) [Example 21.26]",21.6
11,"CC(c1ccccc1F)c1nc2nc(-c3noc(=O)[nH]3)nc(N[C@H](C)C3CCC3)c2n1C[C@H]1CC[C@H](C)CC1 (single isomer, unassigned) [Example 21.35]",2.03

# Same assay, conditions: read-out: % inh. at 1000 nM; at 1000 nM compound
row,SMILES,inhibition at 1 µM [%]
1,"C[C@@H](Nc1nc(S(C)(=O)=O)nc2nc(N3CCCCC3c3ccccc3)n(C[C@H]3CC[C@H](C)CC3)c12)C1CCC1 (single isomer, unassigned) [Example 14.9]",46
